The target in assay [1] is T1, SyGlnB (PII) in complex with SyBCCP (Synechocystis sp. PCC 6803, UniProt Q55247). Kind of assay: pull-down of GlnB with His-BCCP on Ni-NTA magnetic beads, SDS-PAGE densitometry, 2-OG titration. Further details: gene glnB; GlnB C-terminally Strep-tagged (pASK-IBA3glnBSc); bait His-tagged BCCP (pET15accB), biotinylated with E. coli BirA; both expressed in E. coli and purified; GlnB homotrimer; with Biotin carboxyl carrier protein of acetyl-CoA carboxylase. It counts as binding. The following applies: read-out: apparent IC50.

Assay [2] addresses T1, SyGlnB (PII) in complex with SyBCCP. Kind of assay: biochemical. Set-up: gene glnB.
Assay [3] concerns the target T2, SyGlnB (PII) in complex with SyBCCP (Synechocystis sp. PCC 6803, UniProt Q55247, S49D).
T2 construct: gene glnB
Kind of assay: biochemical.

Assay [4] has as its target T3, SyGlnB (PII) in complex with SyBCCP (Synechocystis sp. PCC 6803, UniProt Q55247, S49C).
T3 construct: gene glnB
The assay can be described thus: biochemical.

T1 sequence (Q55247 whole entry): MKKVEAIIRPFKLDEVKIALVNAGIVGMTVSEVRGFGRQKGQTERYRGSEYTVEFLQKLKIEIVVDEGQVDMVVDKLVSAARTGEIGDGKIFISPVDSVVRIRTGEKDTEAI
T1 sequence (Q55120 1-154 partner): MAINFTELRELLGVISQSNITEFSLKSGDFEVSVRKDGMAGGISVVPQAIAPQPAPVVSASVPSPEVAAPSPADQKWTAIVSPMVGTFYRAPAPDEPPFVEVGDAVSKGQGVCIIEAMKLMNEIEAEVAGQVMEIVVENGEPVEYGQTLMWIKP
T2 sequence (Q55247 whole entry S49D): as the sequence (Q55247 whole entry) above, with S49D counted along it
T2 sequence (Q55120 entry or part of it, stated change not applied, further chain): as the sequence (Q55120 1-154 partner) above
T3 sequence (Q55120 entry or part of it, stated change not applied): as the sequence (Q55120 1-154 partner) above
T3 sequence (Q55247 whole entry S49C): as the sequence (Q55247 whole entry) above, with S49C counted along it

As a reminder, the IC50 is the concentration needed to halve the response being measured. Regarding `O=C(O)CCC(=O)C(=O)O` [2-OG], the IC50 in assay [1] was 41.3 µM.
As usually defined, the EC50 is the concentration at which the effect is half-maximal. Low values mean an effect from little substance, high ones a need for much substance. Regarding `Nc1ncnc2c1ncn2[C@@H]1O[C@H](COP(=O)(O)OP(=O)(O)OP(=O)(O)O)[C@@H](O)[C@H]1O` [ATP], the EC50 in assay [2] was determined as 68 µM; in assay [3] it was 231 µM; in assay [4] it was 143 µM.

The values are drawn from paper PMC5080355, “Interaction of the Nitrogen Regulatory Protein GlnB (PII) with Biotin Carboxyl Carrier Protein (BCCP) Controls Acetyl-CoA Levels in the Cyanobacterium Synechocystis sp. PCC 6803” (Frontiers in Microbiology, 2016).
